# Reference: article PMC7111485 (Bioorganic & Medicinal Chemistry, 2016)
# Tests used:
# [1] = target: Bovine spleen cathepsin B (Bos taurus, UniProt P07688); type: biochemical
# HeLa cells = settings: for cell death ratio: human
SMILES,cell death ratio (HeLa cells),further results
"O=C(/C=C/c1ccccc1)N[C@H](COC(=O)c1ccccc1)C(=O)NC1CCCCC1 (single isomer, unassigned) [ent-3]",,Inhibition (%) [1]: no inhibition; cytotoxicity (in words) (HeLa cells): no cytotoxicity
"COc1ccccc1/C=C/C(=O)N[C@@H](COC(=O)c1ccccc1)C(=O)NC1CCCCC1 [7f, (S)-N-(E)-2′-Methoxy-3-phenylprop-2-enoicserine(benzoyl)cyclohexylamide]",,inhibitory activity relative to 3 (times) [1]: about 10 times; inhibitory mechanism (Lineweaver–Burk plot) [1]: competitive inhibition
"COc1cc(/C=C/C(=O)N[C@@H](COC(=O)c2ccccc2)C(=O)NC2CCCCC2)cc(OC)c1 [7h, (S)-N-(E)-3′,5′-Dimethoxy-3-phenylprop-2-enoicserine(benzoyl)cyclohexylamide]",less than 20%,
"COc1cccc(/C=C/C(=O)N[C@@H](COC(=O)c2ccccc2)C(=O)NC2CCCCC2)c1 [7i, (S)-N-(E)-3′-Methoxy-3-phenylprop-2-enoicserine(benzoyl)cyclohexylamide]",less than 20%,
"O=C(/C=C/c1ccc(OC(=O)c2ccccc2)cc1)N[C@@H](COC(=O)c1ccccc1)C(=O)NC1CCCCC1 [7j, (S)-N-(E)-4′-Benzoyloxy-3-phenylprop-2-enoicserine(benzoyl)cyclohexylamine]",less than 20%,
"COc1cc(/C=C/C(=O)N[C@@H](COC(=O)c2ccccc2)C(=O)NC2CCCCC2)cc(OC)c1OC [7k, (S)-N-(E)-3′,4′,5′-Trimethoxy-3-phenylprop-2-enoicserine(benzoyl)cyclohexylamide]",less than 20%,
"O=C(/C=C/c1ccccc1)N[C@@H](COC(=O)c1ccccc1)C(=O)NC1CCCCC1 [compound 3, (S)-N-Cinnamoyl serine(benzoyl)cyclohexylamide]",less than 20%,
COc1cc(/C=C/C(=O)N[C@H](COC(=O)c2ccccc2)C(=O)NC2CCCCC2)cc(OC)c1OC [ent-7k],,cytotoxicity (in words) (HeLa cells): no cytotoxicity
